Like-named read-outs stand apart in the source and are kept apart here.
Tests used:
U2932 cells = test: Real Time Glo viability assay, Betalutin and cell cycle inhibitors (Example 2); type: cell-based, human; conditions: for viability at 0.1 µM / viability at 1 µM: Homo sapiens, read-out: Growth inhibition (signal treated/control; 1 = no change); for viability at 0.1 µM: U2932, U2932, drug 100 nM; for viability at 1 µM: U2932, U2932, drug 1 μM
Method: Cells were split twice a week 1:3-1:5 depending on cell density. […] Real Time Glo was purchased from Promega. 384 well plates were purchased from Greiner Bio-One.
Cells were treated for 18-20 h with Betalutin at a final concentration of 1 μg/ml and 2 μg/ml in 6-well cell culture plates with shaking. After treatment, PBS was added to the cells, and the cells pelleted. Cells were first resuspended in 1 ml PBS, then washed twice in PBS and finally diluted in growth medium at the desired concentration. All cell lines were treated at a cell concentration of 2.5*10^6 cells/ml.
Regardless of cell number the culturing volume was 25 μl. For Real Time Glo, the Cell Viability Substrate and NanoLuc® Enzyme were diluted 1:500 in growth medium, and 25 μL of diluted reagents added to each well. All reagents were equilibrated to 37° C. Cells were incubated with the reaction mix for 1 h at 37° C. before the first measurement of luminescence. Measurements were repeated as often as required within 72 h after adding the reagents. Digitonin was added to cells at 200 μg/ml to record background luminescence of dead cells. A Tecan SPARK 10M plate reader was used to measure luminescence, with an integration time set to 1 sec.
Growth inhibition was calculated by dividing the luminescence signal of the treated cells by the luminescence signal of the control cells for each day of measurement after start of treatment [Table 1].
To evaluate effects of the drugs alone [(−)Betalutin] and their combination with Betalutin [(+)Betalutin], we calculated the Z-score for each sample (ZdrugX=1-(+)BetalutindrugX/(−)BetalutindrugX), where (+)BetalutindrugX and (−) BetalutindrugX are the measured luminescence intensity values for drug X in presence and absence of Betalutin, respectively. The calculation of Z-score values separately for each plate enabled comparison of results across plates, despite variations between the plates in overall signal intensity.

DOHH2 cells = test: Cell cycle analysis (PI, Muse flow cytometer); type: cell-based, human
Method: (§1) Cells were harvested at day 0, 2 h, 18 h, 1 d, 2 d, 3 d, of RIT then fixed in 70% ethanol at −20° C. for 3 hours and stained with Cell Cycle kit (with PI) reagent from Merck Millipore in the dark for 30 min at room temperature before analysis using a Muse® flow cytometer. The percentage of cells in G0/G1, S and G2/M phases was then calculated (mean of three experiments in triplicate).
(§2) At different times after start of incubation, proteins were extracted to measure the CDK1 phosphorylation levels, in parallel, proliferation was determined and at 18 h and 24 h after start of incubation, the percentage of cells in G2/M was assessed (experiments were performed three time except the cell cycle analysis).
(§3) Cells were harvested at 0 h, 2 h, 18 h, 1 d, 2 d, 3 d, and fixed in 70% ethanol at −20° C. for at least 3 h. After staining with the Muse® Cell Cycle Assay Kit (Merck Millipore, Molsheim, France) using propidium iodide in the dark at room temperature for 30 min, cell cycle distribution was analyzed using a Muse® flow cytometer. The percentage of cells in the G0/G1, S and G2/M was calculated (mean of three experiments in triplicate) and the effect of WEE-1 and MYT-1 kinase inhibitors on the cell cycle was assessed.

Ramos cells [1] = test: Cell cycle analysis (PI, Muse flow cytometer); type: cell-based, human
Method: as §1, §2, §3

Rec-1 cells [2] = test: Cell cycle analysis (PI, Muse flow cytometer); type: cell-based, human
Method: as §1, §2, §3

Ramos cells [3] = test: Proliferation study with Wee-1/Myt-1 inhibitors and ^177Lu-lilotomab; type: cell-based, human; conditions: inhibitor 1 μM + ^177Lu-lilotomab 6 MBq/mL (RIT) for 18 h, 6 days after start
Method: (§4) Cells were treated for 18 h with 1 μM of the selective Wee-1 kinase inhibitor MK-1775 (Selleckchem, Houston, USA) or of the dual Wee-1/Myt-1 inhibitor PD-166285 (EMD Merck Millipore/Calbiochem, Molsheim, France) alone or in combination with 6 MBq/mL, 2 MBq/mL and 0.5 MB/mL of ^177Lu-lilotomab for Ramos, Rec-1 and DOHH2 cells respectively. At different times after start of incubation, proteins were extracted to measure the CDK1 phosphorylation levels, in parallel, proliferation was determined and at 18 h and 24 h after start of incubation, the percentage of cells in G2/M was assessed (experiments were performed three time except the cell cycle analysis).
(§5) The activity used for the treatment with ^177Lu-lilotomab was chosen to decrease the proliferation to about 50% for the three cell lines compared with non-treated cells.
(§6) Inhibition of G2/M cell cycle arrest radiosensitises radioresistant Ramos model. The Bliss independence mathematical model was next used to investigate the role of MK-1775 or PD-166285 on the response to ^177Lu-lilotomab. A theoretical therapeutic efficacy was calculated for the two combinations (MK-1775 or PD-166285) in the three cell lines. And the comparison between the experimental and the theoretical curves was done.
(§7) Theoretical efficacyRIT+inhib=EfficacyRIT+Efficacyinhib−(EfficacyRIT×Efficacyinhib)

Rec-1 cells [4] = test: as above; type: cell-based, human; conditions: Rec-1, inhibitor 1 μM + ^177Lu-lilotomab 2 MBq/mL for 18 h, versus either alone
Method: as §4, §5, §6, §7

Ramos tumor xenografts = test: Treatment of mice with tumor xenografts; type: in vivo, athymic mice; conditions: Ramos xenograft
Text: Each treatment group included 6-9 mice.

With `Nc1nc(Nc2ccc(S(N)(=O)=O)cc2)nn1C(=O)c1c(F)cccc1F` [JNJ-7706621] the viability at 0.1 µM (U2932 cells; (+)Betalutin, Dy3) was 83%, the viability at 0.1 µM (U2932 cells; (+)Betalutin, Dy4) was 82% and the viability at 0.1 µM (U2932 cells; (+)Betalutin, Dy5) was 73%. For the same molecule, the viability at 0.1 µM (U2932 cells; (+)Betalutin, Dy6) was 72%, the viability at 0.1 µM (U2932 cells; (−)Betalutin, Dy3) was 90% and the viability at 0.1 µM (U2932 cells; (−)Betalutin, Dy4) was 91%. It also gave a viability at 0.1 µM (U2932 cells; (−)Betalutin, Dy5) of 107%, a viability at 0.1 µM (U2932 cells; (−)Betalutin, Dy6) of 116% and a viability at 1 µM (U2932 cells; (+)Betalutin, Dy3) of 39%. For the same molecule, the viability at 1 µM (U2932 cells; (+)Betalutin, Dy4) was 26%, the viability at 1 µM (U2932 cells; (+)Betalutin, Dy5) was 16% and the viability at 1 µM (U2932 cells; (+)Betalutin, Dy6) was 11%. For the same molecule, the viability at 1 µM (U2932 cells; (−)Betalutin, Dy3) was 53%, the viability at 1 µM (U2932 cells; (−)Betalutin, Dy4) was 36% and the viability at 1 µM (U2932 cells; (−)Betalutin, Dy5) was 25%. For the same molecule, the viability at 1 µM (U2932 cells; (−)Betalutin, Dy6) was 20% and the “Synergy for the combination with Betalutin” value (U2932 cells; U2932, drug 100 nM) was “Bliss”.

`C=CCn1c(=O)c2cnc(Nc3ccc(N4CCN(C)CC4)cc3)nc2n1-c1cccc(C(C)(C)O)n1` [MK-1775] was tested, and the “Proportion of cells in G2/M, inhibitor combined with ^177Lu-lilotomab” value (DOHH2 cells; DOHH2, 1 μM inhibitor + ^177Lu-lilotomab, versus ^177Lu-lilotomab alone or untreated) was “reduction of the fraction of G2/M cells”, the “Proportion of cells in G2/M, inhibitor combined with ^177Lu-lilotomab” value (Ramos cells [1]; 1 μM inhibitor + ^177Lu-lilotomab, versus ^177Lu-lilotomab alone or untreated) was “reduction of the fraction of G2/M cells” and the “Proportion of cells in G2/M, inhibitor combined with ^177Lu-lilotomab” value (Rec-1 cells [2]; Rec-1, 1 μM inhibitor + ^177Lu-lilotomab, versus ^177Lu-lilotomab alone or untreated) was “reduction of the fraction of G2/M cells”. For the same molecule, the “Proliferation (treated/untreated cells)” value (Ramos cells [3]) was ~10%, the “Proliferation (treated/untreated cells)” value (Rec-1 cells [4]) was “statistically reduced the proliferation” and the viability at 0.1 µM (U2932 cells; (+)Betalutin, Dy3) was 120%. For the same molecule, the viability at 0.1 µM (U2932 cells; (+)Betalutin, Dy4) was 95%, the viability at 0.1 µM (U2932 cells; (+)Betalutin, Dy5) was 85% and the viability at 0.1 µM (U2932 cells; (+)Betalutin, Dy6) was 71%. It also gave a viability at 0.1 µM (U2932 cells; (−)Betalutin, Dy3) of 100%, a viability at 0.1 µM (U2932 cells; (−)Betalutin, Dy4) of 90% and a viability at 0.1 µM (U2932 cells; (−)Betalutin, Dy5) of 92%. It also gave a viability at 0.1 µM (U2932 cells; (−)Betalutin, Dy6) of 103%, a viability at 1 µM (U2932 cells; (+)Betalutin, Dy3) of 104% and a viability at 1 µM (U2932 cells; (+)Betalutin, Dy4) of 94%. It also gave a viability at 1 µM (U2932 cells; (+)Betalutin, Dy5) of 89%, a viability at 1 µM (U2932 cells; (+)Betalutin, Dy6) of 80% and a viability at 1 µM (U2932 cells; (−)Betalutin, Dy3) of 86%. For the same molecule, the viability at 1 µM (U2932 cells; (−)Betalutin, Dy4) was 89%, the viability at 1 µM (U2932 cells; (−)Betalutin, Dy5) was 96% and the viability at 1 µM (U2932 cells; (−)Betalutin, Dy6) was 115%. The Median survival (Ramos tumor xenografts; 250 MBq/kg ^177Lu-lilotomab + 30 mg/kg MK-1775 twice a day, day 1 to 5) was 47 days and the “Tumor growth versus 250 MBq/kg ^177Lu-lilotomab alone” value (Ramos tumor xenografts; 250 MBq/kg ^177Lu-lilotomab + MK-1775, p=0.001) was “significantly delayed tumor growth”.

B1: Lutetium-177 [^177Lu]-lilotomab satetraxetan (conjugate, chains of the INN, looked up)
VH: EIQLQQSGPELVKPGASVKVSCKASGYSFTDYNMYWVKQSHGKSLEWIGYIDPYNGDTTYNQKFKGKATLTVDKSSSTAFIHLNSLTSEDSAVYYCARSPYGHYAMDYWGQGTSVTVSS
VL: DIVMTQSHKLLSTSVGDRVSITCKASQDVSTAVDWYQQKPGQSPKLLINWASTRHTGVPDRFTGSGSGTDYTLTISSMQAEDLALYYCRQHYSTPFTFGSGTKLEIK
modifications: 177Lu satetraxetan chelator conjugate
B1 was tested, and the “Proportion of cells showing a G2/M cell cycle arrest” value (DOHH2 cells; DOHH2, 6 MBq/mL, at 24 h) was 45±11%, the “Proportion of cells showing a G2/M cell cycle arrest” value (Ramos cells [1]; 6 MBq/mL, at 24 h) was 64±16% and the “Proportion of cells showing a G2/M cell cycle arrest” value (Rec-1 cells [2]; Rec-1, 6 MBq/mL, at 24 h) was 44±11%. The Median survival (Ramos tumor xenografts; 250 MBq/kg ^177Lu-lilotomab alone) was 40 days.
